Results taken from patent US20260028326A1, “COMPOUND BASED ON ISOINDOLINE-SUBSTITUTED GLUTARIMIDE BACKBONE AND USE THEREOF” (GLUETACS THERAPEUTICS (SHANGHAI) CO., LTD., priority 2022, published 2026).

Columns and labels:
IKZF3 protein = IKZF3 protein (Homo sapiens (Human), UniProt Q96SW2+Q9UKT9); experiment: Western-blot assay of substrate protein degradation in hPBMC, IKZF3; format: cell-based; details: hPBMC cells, compound 500 nM, 24 hours, Western blot
GSPT1 protein = GSPT1 protein (Homo sapiens (Human), UniProt P15170+Q96SW2); experiment: Western-blot assay of substrate protein degradation in hPBMC, GSPT1; format: cell-based; details: hPBMC cells, compound 500 nM, 24 hours, Western blot
GSPT1 protein, sequence (P15170 whole entry): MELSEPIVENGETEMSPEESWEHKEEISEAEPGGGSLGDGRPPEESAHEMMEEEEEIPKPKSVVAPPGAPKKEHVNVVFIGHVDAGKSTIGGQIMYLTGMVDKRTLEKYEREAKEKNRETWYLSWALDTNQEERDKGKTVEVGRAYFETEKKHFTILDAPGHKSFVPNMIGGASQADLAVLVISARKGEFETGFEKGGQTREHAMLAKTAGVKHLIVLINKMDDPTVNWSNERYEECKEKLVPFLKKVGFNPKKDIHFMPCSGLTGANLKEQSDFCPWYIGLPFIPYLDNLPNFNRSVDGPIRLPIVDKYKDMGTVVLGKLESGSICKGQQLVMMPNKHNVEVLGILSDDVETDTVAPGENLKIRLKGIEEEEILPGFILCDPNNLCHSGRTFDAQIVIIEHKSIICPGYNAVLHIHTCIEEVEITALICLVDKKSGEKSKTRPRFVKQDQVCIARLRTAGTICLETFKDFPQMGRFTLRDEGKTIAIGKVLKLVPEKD
GSPT1 protein, sequence (Q96SW2 whole entry): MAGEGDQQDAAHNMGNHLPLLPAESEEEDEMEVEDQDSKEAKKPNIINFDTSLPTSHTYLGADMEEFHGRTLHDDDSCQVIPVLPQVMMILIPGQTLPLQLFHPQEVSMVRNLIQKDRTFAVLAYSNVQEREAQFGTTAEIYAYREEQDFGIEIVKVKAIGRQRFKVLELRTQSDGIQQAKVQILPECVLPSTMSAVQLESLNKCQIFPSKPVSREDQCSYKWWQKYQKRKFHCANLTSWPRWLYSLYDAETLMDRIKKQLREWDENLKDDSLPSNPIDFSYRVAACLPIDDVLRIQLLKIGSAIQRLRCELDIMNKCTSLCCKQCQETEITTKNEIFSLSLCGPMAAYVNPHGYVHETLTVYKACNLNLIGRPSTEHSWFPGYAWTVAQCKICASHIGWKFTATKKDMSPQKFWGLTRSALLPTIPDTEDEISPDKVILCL
GSPT1 protein, sequence (Q16531 whole entry partner): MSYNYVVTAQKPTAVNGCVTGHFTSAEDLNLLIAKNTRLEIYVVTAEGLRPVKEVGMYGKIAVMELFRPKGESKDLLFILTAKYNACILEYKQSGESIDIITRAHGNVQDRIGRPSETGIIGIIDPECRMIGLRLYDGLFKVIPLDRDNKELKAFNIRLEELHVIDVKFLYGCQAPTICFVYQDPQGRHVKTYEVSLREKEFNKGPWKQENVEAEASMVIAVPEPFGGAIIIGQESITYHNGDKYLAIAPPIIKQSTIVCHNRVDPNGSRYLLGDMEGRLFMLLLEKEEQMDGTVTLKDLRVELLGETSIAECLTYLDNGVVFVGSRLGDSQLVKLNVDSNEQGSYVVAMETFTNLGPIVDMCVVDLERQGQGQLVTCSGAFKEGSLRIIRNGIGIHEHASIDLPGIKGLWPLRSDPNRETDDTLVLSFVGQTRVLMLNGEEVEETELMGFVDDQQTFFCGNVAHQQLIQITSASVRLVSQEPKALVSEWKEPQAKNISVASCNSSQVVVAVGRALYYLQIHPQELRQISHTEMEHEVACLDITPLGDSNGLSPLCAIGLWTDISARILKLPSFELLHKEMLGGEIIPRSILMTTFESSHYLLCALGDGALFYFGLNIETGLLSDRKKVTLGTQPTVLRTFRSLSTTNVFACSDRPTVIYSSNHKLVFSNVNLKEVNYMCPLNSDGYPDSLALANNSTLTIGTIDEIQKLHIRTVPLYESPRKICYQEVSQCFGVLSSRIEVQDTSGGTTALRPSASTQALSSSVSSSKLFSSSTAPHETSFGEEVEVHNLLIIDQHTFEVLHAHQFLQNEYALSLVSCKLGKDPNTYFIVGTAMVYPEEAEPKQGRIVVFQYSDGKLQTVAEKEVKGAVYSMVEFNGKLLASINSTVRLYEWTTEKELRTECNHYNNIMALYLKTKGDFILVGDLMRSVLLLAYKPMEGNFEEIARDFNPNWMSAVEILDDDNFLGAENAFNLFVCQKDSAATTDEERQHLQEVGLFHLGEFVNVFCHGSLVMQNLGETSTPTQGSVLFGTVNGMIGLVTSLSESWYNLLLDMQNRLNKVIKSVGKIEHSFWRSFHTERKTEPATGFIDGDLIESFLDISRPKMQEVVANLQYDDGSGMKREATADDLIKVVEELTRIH

Kasumi-1 cells = experiment: Tumor cell proliferation IC50 (CCK-8), Kasumi-1; details: Homo sapiens, Kasumi 1, 72 h, read-out: IC50 for inhibiting the proliferation of tumor cells, Kasumi-1
Method: (§1) The tumor cells used herein were cultured in a cell culture medium listed in table A at 37° C. in an incubator with 5% CO2.
(§2) After the cells were treated with the compounds of the present disclosure for a period of time, the cell viability detection reagent was added to the culture medium for cell viability assessment according to the instructions provided with the CCK-8 kit. […] The growth inhibition of the compounds of the present disclosure on cells was plotted by Prism Graphpad software, and the IC50 values of the compounds of the present disclosure were calculated therefrom.

MV-4-11 cells = experiment: Tumor cell proliferation IC50 (CCK-8), MV-4-11; details: Homo sapiens, MV4-11, 96 h, read-out: IC50 for inhibiting the proliferation of tumor cells, MV-4-11
Method: as §1, §2

Daudi cells = experiment: Tumor cell proliferation IC50 (CCK-8), Daudi; details: Homo sapiens, read-out: IC50 for inhibiting the proliferation of tumor cells, Daudi;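 note: cell viability read with CCK-8 reagent after compound exposure of Daudi cells, IC50 derived from plotted growth inhibition curves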
Method: as §1, §2

Mino cells = experiment: Tumor cell proliferation IC50 (CCK-8), Mino; details: Homo sapiens, 72 h, read-out: IC50 for inhibiting the proliferation of tumor cells, Mino;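 note: cell viability assessed with CCK-8 reagent after compound exposure, IC50 derived from plotted growth inhibition curves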
[1] = molecular target: human Cereblon WT GST-tagged protein (Homo sapiens (Human), UniProt Q96SW2); experiment: CRBN-binding affinity, HTRF (CEREBLON BINDING kit)
human Cereblon WT GST-tagged protein, sequence (Q96SW2 whole entry): as the sequence (Q96SW2 whole entry) above
In short: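 HTRF competition readout: compounds compete with a thalidomide-Re conjugate for GST-tagged wild-type human CRBN detected via Eu-labelled anti-GST antibody. Inhibition rate derived relative to protein-free blank wells.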

IKZF1 protein = IKZF1 protein (Homo sapiens (Human), UniProt Q13422+Q96SW2); experiment: Western-blot assay of substrate protein degradation in hPBMC, IKZF1; format: cell-based; details: hPBMC cells, compound 500 nM, 24 hours, Western blot
IKZF1 protein, sequence (Q13422 whole entry): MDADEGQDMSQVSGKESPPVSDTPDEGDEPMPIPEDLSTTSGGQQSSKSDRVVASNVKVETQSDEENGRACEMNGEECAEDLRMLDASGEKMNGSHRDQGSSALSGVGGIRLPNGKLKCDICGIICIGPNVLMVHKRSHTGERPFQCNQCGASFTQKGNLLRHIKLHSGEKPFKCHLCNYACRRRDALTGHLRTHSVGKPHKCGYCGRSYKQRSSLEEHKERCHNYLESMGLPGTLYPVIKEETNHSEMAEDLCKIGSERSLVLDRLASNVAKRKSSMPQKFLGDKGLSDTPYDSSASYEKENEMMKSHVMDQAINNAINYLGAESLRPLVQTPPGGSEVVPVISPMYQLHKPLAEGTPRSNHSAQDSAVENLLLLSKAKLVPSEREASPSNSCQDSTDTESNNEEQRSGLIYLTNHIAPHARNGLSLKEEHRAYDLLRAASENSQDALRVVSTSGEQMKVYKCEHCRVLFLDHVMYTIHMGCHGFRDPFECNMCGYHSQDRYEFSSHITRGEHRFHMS
IKZF1 protein, sequence (Q96SW2 whole entry): as the sequence (Q96SW2 whole entry) above
IKZF1 protein, sequence (Q16531 whole entry partner): as the sequence (Q16531 whole entry partner) above

SW620 cells = experiment: Tumor cell proliferation IC50 (CCK-8), SW620; details: Homo sapiens, SW-620, 96 h, read-out: IC50 for inhibiting the proliferation of tumor cells, SW620
Method: as §1, §2

TMD8 cells = experiment: Tumor cell proliferation IC50 (CCK-8), TMD8; details: Homo sapiens, TMD8, 72 h, read-out: IC50 for inhibiting the proliferation of tumor cells, TMD8
Method: as §1, §2

MDA-MB-231 cells = experiment: Tumor cell proliferation IC50 (CCK-8), MDA-MB-231; details: Homo sapiens, MDA-MB-231, 96 h, read-out: IC50 for inhibiting the proliferation of tumor cells, MDA-MB-231
Method: (§3) Prior to experimentation, all cells used were correctly identified by STR profiling, and tested negative for mycoplasma through routine screenings.
as §2

Ramos cells = experiment: Tumor cell proliferation IC50 (CCK-8), Ramos; details: Homo sapiens, 72 h, read-out: IC50 for inhibiting the proliferation of tumor cells, Ramos
Method: as §1, §2

MM.1R cells = experiment: Tumor cell proliferation IC50 (CCK-8), MM.1R; details: Homo sapiens, 72 h, read-out: IC50 for inhibiting the proliferation of tumor cells, MM.1R
Method: as §1, §2

CCRF-CEM cells = experiment: Tumor cell proliferation IC50 (CCK-8), CCRF-CEM; details: Homo sapiens, 96 h, read-out: IC50 for inhibiting the proliferation of tumor cells, CCRF-CEM;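 note: cell viability measured with CCK-8 reagent after compound treatment, IC50 taken from plotted growth inhibition curves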
MM.1S cells = experiment: Tumor cell proliferation IC50 (CCK-8), MM.1S; details: Homo sapiens, MM1.S, 72 h, read-out: IC50 for inhibiting the proliferation of tumor cells, MM.1S;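 note: viability of cultured cells read by CCK-8 reagent after compound exposure, growth inhibition curves fitted to derive IC50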
Method: as §1, §2

[2] = Pharmacokinetic study, oral administration, mouse plasma; format: in vivo, mice
Method: The experimental animals used can be those commonly used in pharmacokinetic experiments, e.g., adult and healthy rodents (e.g., mice, rats (such as Sprague-Dawley (SD) rats), guinea pigs) or non-rodents (rabbits, dogs, and monkeys). In the present disclosure, mice were used as the experimental animals.
The experimental animals were divided into two groups: a control group (for collecting blank plasma) and an orally administered group (dosed at 10 mg/kg or 30 mg/kg). Blood samples were collected at predetermined sampling time points after administration, such as 0.25 h, 0.5 h, 1 h, 2 h, 4 h, 8 h, and 24 h post-dosing. Blank plasma was collected from the control group.
Plasma samples were preprocessed before analysis: 10 μL of 50% acetonitrile and 200 μL of internal standard solution (containing 50 ng/mL dexamethasone in acetonitrile) were added to 10 μL of plasma samples. For the blank control group, the same volume of acetonitrile was added instead of the internal standard. The processed samples were vortexed, centrifuged, and the supernatant was taken for LC-MS/MS injection analysis.
After preparing standard curves and quality control (QC) samples, the concentrations of the compounds in the plasma samples were determined by LC-MS/MS analysis. Based on the plasma concentration data obtained from LC-MS/MS analysis, the pharmacokinetic parameters of the test compounds were calculated using the non-compartmental model in the pharmacokinetic calculation software WinNonlin v8.1.

SU-DHL-4 cells = experiment: Tumor cell proliferation IC50 (CCK-8), SU-DHL-4; details: Homo sapiens, SU-DHL-4, 72 h, read-out: IC50 for inhibiting the proliferation of tumor cells, SU-DHL-4
Method: as §3, §2

IKZF3 protein, sequence (Q9UKT9 whole entry): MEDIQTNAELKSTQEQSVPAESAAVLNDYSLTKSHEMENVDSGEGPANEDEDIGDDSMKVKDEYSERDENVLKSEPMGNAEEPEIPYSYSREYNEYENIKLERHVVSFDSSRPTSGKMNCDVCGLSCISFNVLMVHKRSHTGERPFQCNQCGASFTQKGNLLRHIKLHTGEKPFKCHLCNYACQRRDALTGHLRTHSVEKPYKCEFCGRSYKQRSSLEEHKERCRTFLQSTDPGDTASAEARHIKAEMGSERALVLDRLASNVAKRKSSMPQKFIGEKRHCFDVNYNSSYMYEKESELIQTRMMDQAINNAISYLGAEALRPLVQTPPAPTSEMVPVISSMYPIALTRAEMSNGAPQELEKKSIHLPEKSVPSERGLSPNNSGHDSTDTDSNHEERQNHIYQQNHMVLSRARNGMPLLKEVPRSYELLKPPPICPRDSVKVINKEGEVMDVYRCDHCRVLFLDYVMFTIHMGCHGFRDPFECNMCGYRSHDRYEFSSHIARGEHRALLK
IKZF3 protein, sequence (Q96SW2 whole entry): as the sequence (Q96SW2 whole entry) above
IKZF3 protein, sequence (Q16531 whole entry partner): as the sequence (Q16531 whole entry partner) above

Row | IC50 (Kasumi-1 cells) | IC50 (MV-4-11 cells) | IC50 (Daudi cells) | IC50 (Mino cells) | IC50 [1] | IC50 (SW620 cells) | IC50 (TMD8 cells) | IC50 (MDA-MB-231 cells) | IC50 (Ramos cells) | IC50 (MM.1R cells) | IC50 (CCRF-CEM cells) | IC50 (MM.1S cells) | AUC(0-t) ([2]; p.o. 10 mg/kg) | IC50 (SU-DHL-4 cells) | AUC(0-t) ([2]; p.o. 30 mg/kg) | Structure (SMILES) | residual substrate protein level, IKZF3 (IKZF3 protein) | residual substrate protein level, GSPT1 (GSPT1 protein) | residual substrate protein level, IKZF1 (IKZF1 protein)
1 | 50 to 100 nM | 24 nM | 159 nM | 5 to 10 nM | 3070 nM | 50 to 100 nM | 100 to 500 nM | 50 to 100 nM | 100 to 500 nM | 10 to 50 nM | 10 to 50 nM | < 5 nM | > 500 ng·h/mL |  |  | CC1(C)CCC(CN2CCN(Cc3ccc4c(c3)CN(C3CCC(=O)NC3=O)C4=O)CC2)=C(c2ccc(Cl)cc2)C1 (stereo not shown) [GT-02785, 3-(5-((4-((4′-chloro-5,5-dimethyl-3,4,5,6-tetrahydro-[1,1′-biphenyl]-2-yl)methyl)piperazin-1-yl)methyl)-1-oxoisoindolin-2-yl)piperidine-2,6-dione] | A (A represents a residual substrate protein level of <50%) | A (A represents a residual substrate protein level of <50%) | A (A represents a residual substrate protein level of <50%)
2 |  |  |  |  | 410 nM |  | 1000 to 5000 nM |  | 1000 to 5000 nM | 100 to 500 nM | 10 to 50 nM |  |  |  |  | CC1(C)CCC(CN2CCN(Cc3ccc4c(c3)CN(C3CCC(=O)NC3=O)C4=O)CC2)=C(c2ccc(F)cc2)C1 (stereo not shown) [GT-03454, 3-(5-((4-((4′-fluoro-5,5-dimethyl-3,4,5,6-tetrahydro-[1,1′-biphenyl]-2-yl)methyl)piperazin-1-yl)methyl)-1-oxoisoindolin-2-yl)piperidine-2,6-dione] | A (A represents a residual substrate protein level of <50%) | A (A represents a residual substrate protein level of <50%) | A (A represents a residual substrate protein level of <50%)
3 | 10 to 50 nM |  |  | 100 to 500 nM | 2960 nM | 10 to 50 nM | 100 to 500 nM | 10 to 50 nM | 100 to 500 nM | 10 to 50 nM | 10 to 50 nM | 10 to 50 nM |  | 5000 to 10000 nM | > 500 ng·h/mL | CC1(C)CCC(CN2CCN(Cc3ccc4c(c3F)CN(C3CCC(=O)NC3=O)C4=O)CC2)=C(c2ccc(Cl)cc2)C1 (stereo not shown) [GT-03468, 3-(5-((4-((4′-chloro-5,5-dimethyl-3,4,5,6-tetrahydro-[1,1′-biphenyl]-2-yl)methyl)piperazin-1-yl)methyl)-4-fluoro-1-oxoisoindolin-2-yl)piperidine-2,6-dione] | A (A represents a residual substrate protein level of <50%) | A (A represents a residual substrate protein level of <50%) | A (A represents a residual substrate protein level of <50%)
4 |  |  |  | 5 to 10 nM | 540 nM | < 5 nM |  |  |  |  |  |  |  | 100 to 500 nM | > 500 ng·h/mL | O=C1CCC(N2Cc3c(ccc(CN4CCN(Cc5ccccc5-c5ccc(Cl)cc5)CC4)c3F)C2=O)C(=O)N1 (stereo not shown) [GT-03694, 3-(5-((4-((4′-chloro-[1,1′-biphenyl]-2-yl)methyl)piperazin-1-yl)methyl)-4-fluoro-1-oxoisoindolin-2-yl)piperidine-2,6-dione] | A (A represents a residual substrate protein level of <50%) | A (A represents a residual substrate protein level of <50%) | A (A represents a residual substrate protein level of <50%)
5 |  |  |  | 5 to 10 nM | 1170 nM | 5 to 10 nM |  |  |  |  |  |  |  | 50 to 100 nM | > 500 ng·h/mL | O=C1CCC(N2Cc3cc(CN4CCN(Cc5ccccc5-c5ccc(Cl)cc5)CC4)c(F)cc3C2=O)C(=O)N1 (stereo not shown) [GT-03695, 3-(5-((4-((4′-chloro-[1,1′-biphenyl]-2-yl)methyl)piperazin-1-yl)methyl)-6-fluoro-1-oxoisoindolin-2-yl)piperidine-2,6-dione] | A (A represents a residual substrate protein level of <50%) | A (A represents a residual substrate protein level of <50%) | A (A represents a residual substrate protein level of <50%)
